From publication PMC9182347, “α-Glucosidase, α-Amylase and Antioxidant Evaluations of Isolated Bioactives from Wild Strawberry” (Molecules, 2022)
Values joined by “and” are separate entries in the source; they are usually repeats but may differ in a detail not shown here. Equal entries are not always repeated. Blank lines part the entries; values can stand above or below the molecule they belong to.

Tests used:
α-amylase = test: In vitro α-amylase inhibition; type: biochemical; settings: for α-Amylase Percent Inhibition: mean ± SEM, n = 3
Protocol: The amylase solution was prepared in phosphate buffer. The solutions of the F. indica and isolated compounds (62.50 to 1000 µg/mL) were added to the amylase solution and allowed to react. After reaction completion, starch solution was added and incubated as per the standard method. Afterwards, a solution of dinitro-salicylic acid was added to both test and control groups. The final solutions were heated for 3 min in boiling water and the absorbances were measured at […]. The experiments were performed in triplicates and percent inhibitions were calculated.
(§1) The half inhibitory concentration (IC50) was calculated using Microsoft Excel program as per our previously reported method.

α-glucosidase = α-glucosidase (Saccharomyces cerevisiae, UniProt P53341); type: biochemical
Protocol: The α-glucosidase solution (120 μL) of 0.50 U/mL in 0.10 M phosphate buffer (pH 6.90) was prepared and p-nitrophenyl-α-D-glucopyranoside (5 mM) was added as substrate solution. Different concentrations ranging from 62.50 µg/mL to 1000 µg/mL of the crude extracts, semi-purified fractions and isolated compounds of F. indica were prepared accordingly. The plant’s samples (extracts, semi-purified and purified compounds) were mixed with the solutions of enzyme as per the experiment and were incubated at 37 °C.
After initial incubation for 15 min, 20 μL p-nitrophenyl-α-D-glucopyranoside solution was mixed and was again incubated in the same way. Finally, 80 μL solution of sod. carbonate (0.20 M) was added to finish up the reaction. The solution containing all the substrates except α-glucosidase served as a blank. The absorbances of experiments were measured at 405 nm. The experiments were repeated 3 times and the calculations were made as per the standard protocols.
as §1

[1] = DPPH free radicals scavenging assay; settings: for DPPH Percent Inhibition: mean ± SEM, n = 3
Protocol: The antioxidant activity was carried out for F. indica extracts, semi-purified ethyl acetate fractions and isolated compounds using DPPH free radicals. DPPH solution was prepared (24 mg/100 mL of methanol). Stock solutions (1 mg/mL) of F. indica extracts and isolated compounds were prepared in methanol and then diluted to 1000, 500, 250, 125, 62.5 μg/mL. Sample and DPPH solutions were mixed in a ratio of 1:1 and were incubated at 23 °C for 30 min. Finally, absorbance was measured at 517 nm using UV spectrophotometer (Thermo electron corporation, Waltham, MA, USA). Ascorbic acid was used as positive control. Percent radical scavenging activity was measured using the reported equations [61].
as §1

Chain of α-glucosidase (P53341 whole entry): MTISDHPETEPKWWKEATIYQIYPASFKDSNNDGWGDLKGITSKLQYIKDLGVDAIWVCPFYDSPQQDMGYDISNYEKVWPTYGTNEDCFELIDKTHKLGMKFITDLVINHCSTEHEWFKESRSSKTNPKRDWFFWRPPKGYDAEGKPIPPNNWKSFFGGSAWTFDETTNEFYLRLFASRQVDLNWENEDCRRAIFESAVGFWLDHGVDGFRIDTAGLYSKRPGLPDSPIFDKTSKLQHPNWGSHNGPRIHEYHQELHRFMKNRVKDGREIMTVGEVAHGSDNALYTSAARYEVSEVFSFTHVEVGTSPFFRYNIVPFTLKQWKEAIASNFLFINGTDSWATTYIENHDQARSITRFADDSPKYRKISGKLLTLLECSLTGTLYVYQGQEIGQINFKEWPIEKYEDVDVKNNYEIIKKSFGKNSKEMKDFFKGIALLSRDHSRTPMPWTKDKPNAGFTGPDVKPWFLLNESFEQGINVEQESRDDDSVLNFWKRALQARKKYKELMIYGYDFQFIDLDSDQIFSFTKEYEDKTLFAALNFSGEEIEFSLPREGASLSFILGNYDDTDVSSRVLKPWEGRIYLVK

SMILES: C[C@H]1O[C@H](O[C@H]2[C@H](O)[C@@H](O)[C@@H](O[C@H]3[C@H](O)[C@@H](O)C(O)O[C@@H]3CO)O[C@@H]2CO)[C@H](O)[C@@H](O)[C@@H]1N[C@H]1C=C(CO)[C@@H](O)[C@H](O)[C@H]1O (stereo partly shown) [Acarbose, acarbose]
- α-Amylase Percent Inhibition (α-amylase; 62.5 μg/mL): 63.26 ± 0.93%
- α-Amylase Percent Inhibition (α-amylase; 125 μg/mL): 67.05 ± 0.49%
- α-Amylase Percent Inhibition (α-amylase; 250 μg/mL): 71.56 ± 0.49%
- α-Amylase Percent Inhibition (α-amylase; 500 μg/mL): 74.03 ± 0.64%
- α-Amylase Percent Inhibition (α-amylase; 1000 μg/mL): 82.43 ± 0.52%
- α-Glucosidase Percent Inhibition (α-glucosidase): 96.00 ± 0.30% and 90.61 ± 0.43% and 84.03 ± 0.86% and 77.58 ± 0.77% and 71.48 ± 0.74%

- DPPH IC50 [1]: 4.98 µg/mL
SMILES: O=C1O[C@H]([C@@H](O)CO)C(O)=C1O [Ascorbic acid]
- DPPH Percent Inhibition ([1]; 62.5 μg/mL): 75.45 ± 0.90%
- DPPH Percent Inhibition ([1]; 125 μg/mL): 77.61 ± 0.43%
- DPPH Percent Inhibition ([1]; 250 μg/mL): 82.40 ± 0.20%
- DPPH Percent Inhibition ([1]; 500 μg/mL): 87.08 ± 0.47%
- DPPH Percent Inhibition ([1]; 1000 μg/mL): 91.90 ± 0.96%

SMILES: COc1c(O)c(C)c(Cl)c(OC)c1Cl [Compound 1, 2,4-dichloro-6-hydroxy-3,5-dimethoxytoluene]
- α-Amylase IC50 (α-amylase): 15.03 µg/mL and 17.65 µg/mL
- DPPH IC50 [1]: 7.62 µg/mL

SMILES: CC(C)=CC(=O)CC(C)c1ccc(C)cc1 (stereo not shown) [Compound 2, 2-methyl-6-(4-methylphenyl)-2-hepten-4-one]
- α-Amylase IC50 (α-amylase): 16.56 µg/mL
- DPPH IC50 [1]: 14.30 µg/mL
